Measurements published in paper PMC10020666, “Oxidation modulates LINGO2-induced inactivation of large conductance, Ca^2+-activated potassium channels” (The Journal of Biological Chemistry, 2023).
“Also recorded” adds a separate entry of the source. Where two headings read alike, the source gives them in different places. Square brackets hold non-standard residues; d marks the D form. Peptide text beside a SMILES is read from it. Met(O) = CS(=O)CC[C@H](N)C(=O)O

B1: LINGO2 tail peptide Ac-RRFNM(O)KM(O)I-NH2 (peptide)
peptide: Ac-RRFN[Met(O)]K[Met(O)]I-NH2
SMILES: CC[C@H](C)[C@H](NC(=O)[C@H](CCS(C)=O)NC(=O)[C@H](CCCCN)NC(=O)[C@H](CCS(C)=O)NC(=O)[C@H](CC(N)=O)NC(=O)[C@H](Cc1ccccc1)NC(=O)[C@H](CCCNC(=N)N)NC(=O)[C@H](CCCNC(=N)N)NC(C)=O)C(N)=O
B2: LINGO2 tail peptide Ac-RRFNM(O)KMI-NH2 (peptide)
peptide: Ac-RRFN[Met(O)]KMI-NH2
SMILES: CC[C@H](C)[C@H](NC(=O)[C@H](CCSC)NC(=O)[C@H](CCCCN)NC(=O)[C@H](CCS(C)=O)NC(=O)[C@H](CC(N)=O)NC(=O)[C@H](Cc1ccccc1)NC(=O)[C@H](CCCNC(=N)N)NC(=O)[C@H](CCCNC(=N)N)NC(C)=O)C(N)=O
B3: LINGO2 tail peptide Ac-RRFNMKM(O)I-NH2 (peptide)
peptide: Ac-RRFNMK[Met(O)]I-NH2
SMILES: CC[C@H](C)[C@H](NC(=O)[C@H](CCS(C)=O)NC(=O)[C@H](CCCCN)NC(=O)[C@H](CCSC)NC(=O)[C@H](CC(N)=O)NC(=O)[C@H](Cc1ccccc1)NC(=O)[C@H](CCCNC(=N)N)NC(=O)[C@H](CCCNC(=N)N)NC(C)=O)C(N)=O

How the values were obtained:
BK:LINGO2 channels = test: Effect of oxidizing/reducing agents on BK:LINGO2 currents (inside-out patch, step to +160 mV); format: cell-based, rabbit BKα, human LINGO2
Description: (§1) All excised patch experiments were performed at 37 °C in 140 mM symmetrical K^+ solutions which contained 140 mM KCl, 10 mM glucose, 10 mM Hepes, and either 1 mM ethylene glycol-bis(β-amino ether)-N,N,N′,N′-tetraacetic acid (EGTA (for free [Ca^2+] 100 nM to 300 nM) or 1 mM hydroxyethylethylenediaminetriacetic acid (HEDTA for free [Ca^2+] 1 μM to 10 μM) and the pH of all solutions was adjusted to 7.2 with KOH. These solutions were made with double-distilled, deionized, filtered water from a MilliQ water purification system. The pipette solution contained 100 nM free Ca^2+. We used “Chelator” (https://www.ru.nl/animal/research/chelator/) to calculate the total amount of Ca^2+ required, as per Schoenmakers et al., ([40]) and free Ca^2+ concentrations were checked with a Ca^2+ sensitive electrode.
(§2) During experiments, the dish containing HEK cells was superfused with Hanks solution, which contained (in mM) 129.8 Na^+, 5.8 K^+, 135 Cl^-, 4.17 HCO3^-, 0.34 HPO4^2-, 0.44 H2PO4^-, 1.8 Ca^2+, 0.9 Mg^2+, 0.4 SO4^2-, 10 glucose, 2.9 sucrose, and 10 Hepes, and its pH was adjusted to 7.4 with NaOH. In addition, the patch under study was continuously superfused by means of a close delivery system consisting of a pipette (tip diameter 200 μm) placed approximately 300 μm away from the cell. This could be switched, with a dead-space time of around 5 s, to a solution containing a drug.
(§3) Electrodes were pulled from Corning borosilicate glass (1.5 mm O.D. × 0.86 mm I.D.) using a Sutter P-97 pipette puller and fire polished using a Narashige MF 83 microforge. Pipettes had resistances of 2 to 5 MΩ when filled with recording solutions and series resistance was compensated by up to 80%. Standard single-channel patch clamp recording methods were used. Voltage clamp commands were delivered via an Axopatch 200B patch clamp amplifier (Axon Instruments) connected to a Digidata 1322A AD/DA converter (Axon Instruments) interfaced to computers running pClamp software (Axon Instruments). Data was acquired at 100 KHz and filtered at 2 KHz or 5 KHz. Patches were held at either −60 mV or −100 mV and depolarized in 20 mV increments to 200 mV. Residual capacitance and leakage currents were subtracted using either a P/4 protocol or offline by manual leak subtraction.
(§4) The human LINGO2 transcript used [NM_001354575.2] was untagged in a pcDNA 3.1 vector (VectorBuilder). The α subunit of the rabbit BK channel was isolated from rabbit urethral smooth muscle and cloned using the pcDNA TOPO DNA cloning kit (Life Technologies). The identifiesd transcript corresponded to the ZERO variant of mouse BKα and to variant 2 (NM_002247.3) of human BKα. We used 100 ng ml^−1 cDNA for BKα only transfections, whereas a 100:500 ng ml^−1 cDNA ratio was used for BKα:LINGO2 and BKα:LINGO1 cotransfections for inside-out patch recordings. GFP (150 ng ml^−1) was included in all transfections except those used for Figure 2, C and D. cDNA was transiently transfected into HEK cells using lipofectamine. Site-directed mutagenesis used the Phusion kit (Thermo Fisher Scientific) method ([41]) and all mutations were confirmed by sequencing.
(§5) HEK293 cells were cultured in Dulbecco's modified Eagle's medium + MEM media containing 10% fetal bovine serum and 1% Penicillin-Streptomycin antibiotics at 37 °C, and 95% humidifying incubator containing 5% CO2. Subculturing was done by 0.05% Trypsin-EDTA solution.
All data is presented as mean ± SD and was analyzed with Prism software (GraphPad). Individual data points are also shown in bar charts. Statistical differences were assessed using either paired or unpaired nonparametric tests (Wilcoxin signed-rank test, Mann–Whitney test), or the extra sum of squares F-test, as appropriate. Comparisons of three or more nonparametric data sets used Friedman’s test followed by Dunn’s test for multiple comparisons, whereas ANOVA was used for three or more parametric data sets. p < 0.05 was taken as significant.

[1] = biological target: T1, BKα currents (BK channels) in HEK cell patches (Oryctolagus cuniculus, UniProt Q9BG98); test: Inhibition of BKα currents by synthetic LINGO2 tail peptides (excised inside-out patch clamp); format: cell-based, rabbit; conditions: 1 μM Ca2+; for 95% Confidence Intervals of IC50Last5ms / IC50Last5ms increase compared to WT LINGO2 peptide: +160 mV; for IC50: step to +160 mV for 100 ms from -60 mV, inside-out patches, 37 °C, pH 7.2, Hill-Langmuir fit, mean ± SD; for Inactivation of BK currents by peptide: step to +160 mV, rate compared at 1 μM peptide; for IC50Last5ms increase compared to WT LINGO2 peptide: p < 0.001, extra sum of squares F-test
T1 construct: expressed in transfected cells; host or cells: HEK293 cells, transient transfection with lipofectamine (BKα cDNA plus GFP plasmid)
Description: as §1, §2, §3, §4, §5
Concentration–effect data were fitted with a Hill–Langmuir equation:[4] I/Icontrol=1/{1+10^ˆ(log[Drug]−logIC50)} where, I was the current recorded in the drug, Icontrol was the current in the absence of drug, IC50 was the half-maximal effective concentration, and [Drug] was the concentration variable.
All data is presented as mean ± SD and was analyzed with Prism software (GraphPad). Individual data points are also shown in bar charts. […]

[2] = biological target: α subunit of the rabbit BK channel (large conductance, Ca2+ and voltage-activated K+ channel) (rabbit)
[3] = n = 5 (M605 oxidized), 6 (M603 oxidized), 7 (both), read-out: IC50Last5ms (half maximal block of current amplitude in last 5 ms of pulse)

T1 sequence (Q9BG98 whole entry): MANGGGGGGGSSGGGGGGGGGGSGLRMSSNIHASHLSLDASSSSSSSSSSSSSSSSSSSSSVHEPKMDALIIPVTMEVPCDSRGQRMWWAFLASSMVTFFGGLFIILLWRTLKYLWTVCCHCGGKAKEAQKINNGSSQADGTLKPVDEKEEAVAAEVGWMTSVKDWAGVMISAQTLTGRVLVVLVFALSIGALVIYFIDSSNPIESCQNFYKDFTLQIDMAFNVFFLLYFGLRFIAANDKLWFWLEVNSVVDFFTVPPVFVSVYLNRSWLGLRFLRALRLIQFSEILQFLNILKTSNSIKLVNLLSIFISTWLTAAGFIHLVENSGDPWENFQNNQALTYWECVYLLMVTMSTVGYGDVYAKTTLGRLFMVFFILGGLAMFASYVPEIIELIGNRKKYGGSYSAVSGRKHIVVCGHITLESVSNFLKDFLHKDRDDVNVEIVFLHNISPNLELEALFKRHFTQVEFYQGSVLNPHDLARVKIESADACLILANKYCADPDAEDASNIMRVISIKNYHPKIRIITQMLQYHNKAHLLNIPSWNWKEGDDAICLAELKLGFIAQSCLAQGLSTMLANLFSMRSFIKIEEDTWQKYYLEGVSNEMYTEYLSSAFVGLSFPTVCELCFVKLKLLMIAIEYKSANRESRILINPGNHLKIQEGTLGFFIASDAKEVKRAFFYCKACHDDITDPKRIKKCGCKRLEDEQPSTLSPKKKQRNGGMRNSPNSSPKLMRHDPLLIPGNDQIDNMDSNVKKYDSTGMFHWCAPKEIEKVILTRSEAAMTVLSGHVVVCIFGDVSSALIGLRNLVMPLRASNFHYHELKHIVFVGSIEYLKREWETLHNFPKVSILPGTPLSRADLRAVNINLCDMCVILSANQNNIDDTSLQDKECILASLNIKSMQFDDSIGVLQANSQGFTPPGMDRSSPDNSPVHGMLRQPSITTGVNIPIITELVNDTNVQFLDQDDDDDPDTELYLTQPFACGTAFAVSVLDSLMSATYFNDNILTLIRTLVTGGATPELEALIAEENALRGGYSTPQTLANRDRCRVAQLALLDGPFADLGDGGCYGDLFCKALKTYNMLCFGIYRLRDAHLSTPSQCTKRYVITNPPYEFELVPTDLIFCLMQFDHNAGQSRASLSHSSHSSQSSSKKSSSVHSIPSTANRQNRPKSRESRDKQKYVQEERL

Molecule | Inactivation of BK currents by peptide [1] | IC50 [1, 3] [nM] | IC50Last5ms: concentration of the peptide that produced half maximal block in BKα current amplitude in the last 5 ms of a pulse to +160 mV (inside-out HEK patches, 1 μM Ca2+) [2] [nM] | further results
O[C@@H](CS)[C@@H](O)CS [DTT] |  |  |  | Effect of DTT alone on peak or sustained currents (BK:LINGO2 channels; 100 μM DTT, 1-5 min, 100 nM Ca2+, 5 to 7 experiments): failed to alter the peak (black circles) or sustained (purple diamonds) currents; Prevention of Ch-T effects by DTT pretreatment / continuous presence (BK:LINGO2 channels; 100 μM DTT, then with Ch-T 5-7 min, 100 nM Ca2+, 5 to 7 experiments): not prevented; also recorded: the effects of Ch-T were unaltered in the continuous presence of DTT; also recorded: resistant to treatment with the cysteine-specific reducing agent DTT; Reversal of Ch-T effects by DTT coapplication (BK:LINGO2 channels; 200 μM Ch-T 1-4 min, then Ch-T + DTT 4-7 min, 4 to 7 experiments): unable to reverse the effects of Ch-T
Ac-RRFNMKMI-NH2 [Ac-RRFNMKMI-NH2] | caused inactivation, the rate of which was concentration-dependent |  |  | 95% Confidence Intervals of IC50Last5ms ([1]; n = 6): 223 to 303 nM; IC50 ([1]; n = 6, read-out: IC50Last5ms (half maximal block of current amplitude in last 5 ms of pulse)): 260 ± 78 nM
CC[C@H](C)[C@H](NC(=O)[C@H](CC[S+](C)[O-])NC(=O)[C@H](CCCCN)NC(=O)[C@H](CC[S+](C)[O-])NC(=O)[C@H](CC(N)=O)NC(=O)[C@H](Cc1ccccc1)NC(=O)[C@H](CCCNC(=N)N)NC(=O)[C@H](CCCNC(=N)N)NC(C)=O)C(N)=O (stereo partly drawn) [Ac-RRFNM(O)KM(O)I-NH2] (Ac-RRFN[Met(O)]K[Met(O)]I-NH2) | greatly reduced | 13900 ± 1100 |  | IC50Last5ms increase compared to WT LINGO2 peptide [1]: ~50 fold; Inactivation of BK currents by peptide ([1]; listed as RRFNM(O)KM(O)I): inactivation was practically abolished at all concentrations tested; Inactivation of BK currents by peptide ([1]; listed as peptide containing Met(O) at both positions): time-dependent inactivation was practically abolished
CC[C@H](C)[C@H](NC(=O)[C@H](CC[S+](C)[O-])NC(=O)[C@H](CCCCN)NC(=O)[C@H](CCSC)NC(=O)[C@H](CC(N)=O)NC(=O)[C@H](Cc1ccccc1)NC(=O)[C@H](CCCNC(=N)N)NC(=O)[C@H](CCCNC(=N)N)NC(C)=O)C(N)=O (stereo partly drawn) [Ac-RRFNMKM(O)I-NH2] (Ac-RRFNMK[Met(O)]I-NH2) | the rate of inactivation was slower compared to that observed with the WT peptide | 2300 ± 700 |  | 95% Confidence Intervals of IC50Last5ms ([1]; n = 5-7): 2000 to 2700 nM
CC[C@H](C)[C@H](NC(=O)[C@H](CCSC)NC(=O)[C@H](CCCCN)NC(=O)[C@H](CC[S+](C)[O-])NC(=O)[C@H](CC(N)=O)NC(=O)[C@H](Cc1ccccc1)NC(=O)[C@H](CCCNC(=N)N)NC(=O)[C@H](CCCNC(=N)N)NC(C)=O)C(N)=O (stereo partly drawn) [Ac-RRFNM(O)KMI-NH2] (Ac-RRFN[Met(O)]KMI-NH2) | slower than that of the WT peptide | 6900 ± 500 |  | IC50Last5ms increase compared to WT LINGO2 peptide [1]: ~27 fold
B1 |  |  | 13900 | 
Ac-RRFNMKMI-NH2 [LINGO2 tail peptide Ac-RRFNMKMI-NH2] |  |  | 260 | 
B2 |  |  | 6900 | 
B3 |  |  | 2300 | 
